# In article PMC9890698 (BMC Biology, 2023):
# Where “and” joins values, the source holds several entries; their conditions need not be identical. Equal entries are not always repeated.
# Tests used:
# [1] = system: Gαq protein in HEK293T cells (pcDNA3.1); experiment: Gαq protein activation BRET2 assay in control HEK293T cells without receptor (pcDNA3.1 / 0 μg); type: cell-based, Human; conditions: pcDNA3.1, ADP 10 μM, 1 min, individual experiments
# Text: As previously described, using a BRET^2 (bioluminescence resonance energy transfer)-based assay, we directly monitored the basal Gαq protein activation by measuring the interaction between Gαq and Gγ2 subunits of the Gαqβ1γ2 heterotrimer complex. Indeed, this assay is based on the non-radiative transfer between the Renilla reniformis luciferase (RLuc8) energy donor fused to the Gαq protein subunit and the fluorescent GFP2 energy acceptor fused to Gγ2 protein subunit (Fig. 1a). […] By contrast, ligand-independent constitutive receptor activation or agonist-induced receptor activation will promote Gαq/Gγ2 subunit dissociation, thereby leading to a decrease of the basal BRET signal (Fig. 1a). […] To preclude any P2Y1-R activation by a passive release of ADP by HEK293T cells, we performed similar experiments in the presence of high concentration of apyrase (0.2U/mL) to degrade any trace of ADP in the medium (Additional File 2: Fig. S2a). Under these conditions, P2Y1-R expression still induces a marked and significant decrease of the basal BRET signal compared to control cells (pcDNA3.1), thereby supporting a P2Y1-R-dependent constitutive activation of Gαq protein. […] Of note, because P2Y1-R and AT1-R were respectively Myc- and HA-tagged and were thus detected using different primary antibodies, their expression at the cell surface cannot be compared between each other’s.
# G protein activation and β-arrestin 2 recruitment were performed as previously described. […] BRET signal between RLuc8 and GFP2 was measured after addition of the luciferase substrate coelenterazine 400a (5 μM). […] BRET signal was recorded after incubation with coelenterazine h (5 μM) for 8 min. For kinetics studies, BRET signal between RLuc and Venus was recorded at 20-s intervals at basal state for the 2 first minutes and then for 5 min after ligand injection. For saturation curves (BRET^1), the expression level of Venus- or RLuc-tagged protein was determined by direct measurement of total fluorescence and luminescence respectively. Total fluorescence was first measured with an excitation filter at 485 nm and an emission filter at 520 nm. Then, the same sample was incubated for 8 minutes with 5 μM coelenterazine h and the total luminescence was measured. BRET^2 and BRET^1 readings were collected using a modified Infinite F500 (Tecan Group Ltd). The BRET^2 signal was calculated by the ratio of emission of GFP2 (510–540 nm) to RLuc8 (370–450 nm) and the BRET^1 signal by the ratio of emission of Venus (520–570 nm) to RLuc (370–480 nm). Sometimes, results are expressed as the Net BRET computed by deducting the BRET background signal (obtained in the presence of the energy donor alone) from the BRET signal (acquired from cells expressing both the energy donor and acceptor).
# [2] = molecular target: T1, Human P2Y12-R (Homo sapiens, UniProt Q9H244); experiment: β-arrestin 2 recruitment BRET1 assay (β-arrestin 2-RLuc / P2Y12-R-Venus) in HEK293T cells; type: cell-based; conditions: 10 μM, 5 min, result in words
# T1 construct: expressed in transfected cells; host or cells: HEK293T/17
# Text: We assessed β-arrestin 2 recruitment to the receptor using BRET^1 assay. The assay measures the interaction between β-arrestin 2 fused to the Renilla reniformis luciferase (RLuc) energy donor and the receptor fused to fluorescent Venus energy acceptor (Fig. 3a). The recruitment of cytosolic β-arrestin 2 to the receptor at the plasma membrane in the presence of an agonist will promote a significant increase of the BRET signal compared to the basal state, reflecting the close proximity between the β-arrestin 2 energy donor and the receptor energy acceptor [22]. […]
# G protein activation and β-arrestin 2 recruitment were performed as previously described. […] BRET signal between RLuc8 and GFP2 was measured after addition of the luciferase substrate coelenterazine 400a (5 μM). […] BRET signal was recorded after incubation with coelenterazine h (5 μM) for 8 min. For kinetics studies, BRET signal between RLuc and Venus was recorded at 20-s intervals at basal state for the 2 first minutes and then for 5 min after ligand injection. For saturation curves (BRET^1), the expression level of Venus- or RLuc-tagged protein was determined by direct measurement of total fluorescence and luminescence respectively. Total fluorescence was first measured with an excitation filter at 485 nm and an emission filter at 520 nm. […] BRET^2 and BRET^1 readings were collected using a modified Infinite F500 (Tecan Group Ltd). […]
# [3] = molecular target: T1, Human P2Y12-R; experiment: IP1 accumulation assay (HTRF) in HEK293T cells expressing P2Y12-R; type: cell-based; conditions: MRS2179 10 μM, 2 h
# [4] = system: HEK293T cells (pcDNA3.1); experiment: IP1 accumulation assay (HTRF) in control HEK293T cells (pcDNA3.1); type: cell-based, Human; conditions: pcDNA3.1, MRS2179 10 μM, 2 h
# Text: Since Gαq protein activation is known to induce PLC activation leading to IP3 and subsequent cytosolic calcium release, we analyzed the constitutive Gαq-dependent P2Y1-R signaling by quantifying intracellular inositol monophosphate (IP1) using a monoclonal antibody-based competitive ELISA. IP1 is a downstream metabolite of IP3 that accumulates in cells following Gαq protein-coupled receptor activation, making it an ideal readout for Gαq protein-dependent signaling pathways.
# Quantification of intracellular IP1 was performed using the HTRF (Homogeneous Time Resolved Fluorescence) IP1 competitive immunoassay (IP-One Tb kit. Cisbio. France) according to the manufacturer’s instructions. Briefly, 20,000 HEK293T/17 cells or 3.10^6 platelets were distributed in a 384-well white microplate (Greiner) and incubated with the indicated molecules for 30 min or 2 h at 37 °C in the presence of 50 mM of LiCl to prevent IP1 degradation. After addition of d2-labeled IP1 (acceptor) and anti-IP1-Cryptate (donor) for 1 h, the specific FRET signals were calculated by the fluorescence ratio of the acceptor and donor emission signal (665/620 nm) collected using a modified Infinite F500 (Tecan Group Ltd). Conversion of the HTRF ratio of each sample into IP1 concentrations was performed on the basis of a standard curve to determine the linear dynamic range of the assay.
# [5] = system: P2Y1-R; parameters: method as in PMID 29724785; conditions: Alzheimer's disease mouse model, result in words; cited from earlier work
# T1 sequence (Q9H244 whole entry): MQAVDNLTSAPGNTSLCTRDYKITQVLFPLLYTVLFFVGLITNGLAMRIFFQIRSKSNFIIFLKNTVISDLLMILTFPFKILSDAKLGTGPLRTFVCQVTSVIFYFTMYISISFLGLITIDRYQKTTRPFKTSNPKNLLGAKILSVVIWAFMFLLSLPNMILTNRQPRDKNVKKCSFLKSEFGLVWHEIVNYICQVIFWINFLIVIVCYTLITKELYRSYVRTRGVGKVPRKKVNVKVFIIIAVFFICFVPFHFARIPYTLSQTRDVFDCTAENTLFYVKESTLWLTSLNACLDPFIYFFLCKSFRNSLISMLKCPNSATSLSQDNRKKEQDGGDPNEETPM
Compound,ADP-modulated BRET [1],Effect on β-arrestin 2 recruitment [2],IP1 concentration [3],IP1 concentration [4],"Effect on network homeostasis, spatial learning and memory [5]"
"Nc1ncnc2c1ncn2[C@@H]1O[C@H](COP(=O)(O)OP(=O)(O)O)[C@@H](O)[C@H]1O [ADP, adenosine diphosphate]",-0.02779 and 0.00353 and 0.02201 and 0.01275 and 0.006152 and -0.007154,did not trigger β-arrestin 2 recruitment,–,–,–
CNc1ncnc2c1ncn2[C@H]1C[C@H](OP(=O)(O)O)[C@@H](COP(=O)(O)O)O1 [MRS2179],–,–,90.2229 nM and 91.7585 nM and 129.706 nM and 87.0301 nM and 114.326 nM,88.9223 nM and 110.299 nM and 105.967 nM and 93.0408 nM and 138.708 nM,restored network homeostasis and protected from the decline of spatial learning and memory
